Results: patent US9302999B2, “Substituted triazoles as herbicides” (E. I. DU PONT DE NEMOURS AND COMPANY, priority 2012, dated 2016)

Assays:
Type in all cases: in vivo
[1] = tested on: galium (catchweed bedstraw, Galium aparine); assay: Test C pre-/postemergence: galium
How it was run: (§1)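 Preemergence on seeds in loam/sand, postemergence on 2–18 cm (1–4-leaf) plants in peat-based medium; compounds in non-phytotoxic solvent with surfactant. After 13–15 days in greenhouse, visual rating versus controls, 0 (no effect) to 100 (complete control).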

[2] = tested on: nutsedge, yellow (yellow nutsedge, Cyperus esculentus); assay: Test C pre-/postemergence: nutsedge, yellow
How it was run: as §1

[3] = tested on: johnsongrass (Sorghum halepense); assay: Test C pre-/postemergence: johnsongrass
How it was run: as §1

kochia (Kochia scoparia) = assay: Test C pre-/postemergence: kochia; details: Postemergence
How it was run: as §1

corn (Zea mays) = assay: Test A pre-/postemergence: corn
How it was run: (§2)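 Compounds, formulated with surfactant in non-phytotoxic solvent, were applied as a directed soil spray preemergence and as postemergence sprays to 2–10 cm, one- to two-leaf seedlings grown in loam soil blended with sand; visual injury, 0–100, assessed ~10 days post-treatment against untreated controls.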

[4] = tested on: large crabgrass (Digitaria sanguinalis); assay: Test C pre-/postemergence: large crabgrass
How it was run: as §1

[5] = tested on: pigweed (Amaranthus retroflexus); assay: Test C pre-/postemergence: pigweed
How it was run: as §1

[6] = tested on: ryegrass, Italian (Italian ryegrass, Lolium multiflorum); assay: Test C pre-/postemergence: ryegrass, Italian
How it was run: as §1

[7] = tested on: morningglory (Ipomoea spp.); assay: Test A pre-/postemergence: morningglory
How it was run: as §2

[8] = tested on: barnyardgrass (Echinochloa crus-galli); assay: Test A pre-/postemergence: barnyardgrass
How it was run: as §2

[9] = tested on: winter wheat (Triticum aestivum); assay: Test C pre-/postemergence: winter wheat
How it was run: as §1

[10] = Postemergence, 31 g ai/ha, scale 0 to 100 (0 no effect, 100 complete control)
[11] = Postemergence, 62 g ai/ha, scale 0 to 100 (0 no effect, 100 complete control)
[12] = Postemergence, 125 g ai/ha, scale 0 to 100, 0 no effect, 100 complete control
[13] = Postemergence, 250 g ai/ha, scale 0 to 100 (0 no effect, 100 complete control)
[14] = Preemergence, 31 g ai/ha, scale 0 (no effect) to 100 (complete control)
[15] = Preemergence, 62 g ai/ha, scale of 0 to 100, 0 is no effect, 100 is complete control
[16] = Preemergence, 125 g ai/ha, scale 0 to 100, 0 no effect, 100 complete control
[17] = Preemergence, 250 g ai/ha, scale 0 to 100, 0 no effect, 100 complete control
[18] = Postemergence, 125 g ai/ha, 0 to 100 scale, 0 is no effect, 100 is complete control
[19] = Postemergence, 500 g ai/ha, 0 to 100 scale, 0 is no effect, 100 is complete control
[20] = Preemergence, 125 g ai/ha, 0 to 100 scale where 0 is no effect and 100 is complete control
[21] = Preemergence, 500 g ai/ha, 0 to 100 scale (0 no effect, 100 complete control)

## CCOc1nn(-c2ccc(Cl)cc2)nc1Cc1ccnc(C(F)(F)F)c1 [Compound 188]
[1]; [10]
  Plant response rating, Galium: 60
[1]; [11]
  Plant response rating, Galium: 80
[1]; [12]
  Plant response rating, Galium: 85
[1]; [13]
  Plant response rating, Galium: 90
[1]; [14]
  Plant response rating, Galium: 90
[1]; [15]
  Plant response rating, Galium: 90
[1]; [16]
  Plant response rating, Galium: 95
[1]; [17]
  Plant response rating, Galium: 95
[2]; [10]
  Plant response rating, Nutsedge, Yellow: 10
[2]; [11]
  Plant response rating, Nutsedge, Yellow: 10
[2]; [12]
  Plant response rating, Nutsedge, Yellow: 10
[2]; [13]
  Plant response rating, Nutsedge, Yellow: 15
[2]; [14]
  Plant response rating, Nutsedge, Yellow: 5
[2]; [15]
  Plant response rating, Nutsedge, Yellow: 5
[2]; [16]
  Plant response rating, Nutsedge, Yellow: 5
[2]; [17]
  Plant response rating, Nutsedge, Yellow: 20
[3]; [10]
  Plant response rating, Johnsongrass: 45
[3]; [11]
  Plant response rating, Johnsongrass: 75
[3]; [12]
  Plant response rating, Johnsongrass: 95
[3]; [13]
  Plant response rating, Johnsongrass: 98
[3]; [14]
  Plant response rating, Johnsongrass: 55
[3]; [15]
  Plant response rating, Johnsongrass: 85
[3]; [16]
  Plant response rating, Johnsongrass: 95
[3]; [17]
  Plant response rating, Johnsongrass: 98
Kochia (Kochia scoparia); 31 g ai/ha, scale 0 to 100 (0 no effect, 100 complete control)
  Plant response rating, Kochia: 70
Kochia (Kochia scoparia); 62 g ai/ha, scale 0 to 100 (0 no effect, 100 complete control)
  Plant response rating, Kochia: 90
Kochia (Kochia scoparia); 125 g ai/ha, scale 0 to 100, 0 no effect, 100 complete control
  Plant response rating, Kochia: 90
Kochia (Kochia scoparia); 250 g ai/ha, scale 0 to 100 (0 no effect, 100 complete control)
  Plant response rating, Kochia: 90
Corn (Zea mays); [18]
  Plant response rating, Corn: 40
Corn (Zea mays); [19]
  Corn plant response rating: 50
Corn (Zea mays); [20]
  Plant response rating, Corn: 10
Corn (Zea mays); [21]
  Plant response rating, Corn: 20
[4]; [10]
  Plant response rating, Crabgrass, Large: 50
[4]; [11]
  Plant response rating, Crabgrass, Large: 85
[4]; [12]
  Plant response rating, Crabgrass, Large: 95
[4]; Postemergence, 250 g ai/ha, scale 0 to 100
  Plant response rating, Crabgrass, Large: 95
[4]; [14]
  Plant response rating, Crabgrass, Large: 98
[4]; [15]
  Plant response rating, Crabgrass, Large: 100
[4]; [16]
  Plant response rating, Crabgrass, Large: 100
[4]; [17]
  Plant response rating, Crabgrass, Large: 100
[5]; [10]
  Plant response rating, Pigweed: 95
[5]; [11]
  Plant response rating, Pigweed: 95
[5]; [12]
  Plant response rating, Pigweed: 98
[5]; [13]
  Plant response rating, Pigweed: 100
[5]; [14]
  Plant response rating, Pigweed: 100
[5]; [15]
  Plant response rating, Pigweed: 100
[5]; [16]
  Plant response rating, Pigweed: 100
[5]; [17]
  Plant response rating, Pigweed: 100
[6]; [10]
  Plant response rating, Ryegrass, Italian: 50
[6]; [11]
  Plant response rating, Ryegrass, Italian: 70
[6]; [12]
  Plant response rating, Ryegrass, Italian: 85
[6]; [13]
  Plant response rating, Ryegrass, Italian: 90
[6]; [14]
  Plant response rating, Ryegrass, Italian: 60
[6]; [15]
  Plant response rating, Ryegrass, Italian: 65
[6]; [16]
  Plant response rating, Ryegrass, Italian: 95
[6]; [17]
  Plant response rating, Ryegrass, Italian: 98
[7]; [18]
  Plant response rating, Morningglory: 90
[7]; [19]
  Morningglory plant response rating: 100
[7]; [20]
  Plant response rating, Morningglory: 20
[7]; [21]
  Plant response rating, Morningglory: 90
[8]; [18]
  Plant response rating, Barnyardgrass: 90
[8]; [19]
  Barnyardgrass plant response rating: 90
[8]; [20]
  Plant response rating, Barnyardgrass: 90
[8]; [21]
  Plant response rating, Barnyardgrass: 100
[9]; [10]
  Plant response rating, Wheat: 20
[9]; [11]
  Plant response rating, Wheat: 30
[9]; [12]
  Plant response rating, Wheat: 45
[9]; [13]
  Plant response rating, Wheat: 50
[9]; [14]
  Plant response rating, Wheat: 30
[9]; [15]
  Plant response rating, Wheat: 30
[9]; [16]
  Plant response rating, Wheat: 35
[9]; [17]
  Plant response rating, Wheat: 40
